Measurements from patent US20050222130A1, “Inhibitors of RhoA kinase production/activation for relaxing the features of and/or for decontracting the skin” (L'OREAL, priority 2004, published 2005).

Tested on: dermal equivalent comprising a collagen matrix seeded with normal human fibroblasts
Assay: Spontaneous contraction of attached dermal equivalent (dermo-decontracting effect)
Type: cell-based
Conditions: for inhibition of contraction of the dermal equivalent (in words): different concentrations
From the text: The principle of this test entails studying the dermo-decontracting effect of (R)(+)-trans-N-(4-pyridyl)-4-(1-aminoethyl)cyclohexanecarboxamide dihydrochloride (Y-27632) on a model of dermal equivalent comprising a collagen matrix seeded with normal human fibroblasts. These conditions are intended to mimic in vitro the dermal contractile phenomena that take place during facial expressions. Under these conditions, specifically, the cells spontaneously express tensile forces that induce a retraction of the collagen gel. […] Measurement of this area makes it possible to evaluate the relaxation effects of substances placed in contact beforehand with the dermal equivalent. Four series of 3 attached dermal equivalents containing normal human fibroblasts are prepared: a control series without any treatment, and three series treated with (R)(+)-trans-N-(4-pyridyl)-4-(1-aminoethyl)cyclohexanecarboxamide dihydrochloride at different concentrations. The experiment is repeated three times. The dermal equivalents are prepared as described in Asselineau et al., Exp. Cell. Res. 1985, 159, 536-539; Models in Dermatology, 1987, Vol. 33, pp. 1-7, in the following proportions: [table] The treated dermal equivalent differs from the control dermal equivalent in that variable amounts of (R)(+)-trans-N-(4-pyridyl)-4-(1-aminoethyl)cyclohexanecarboxamide dihydrochloride are added thereto. The collagen used is type I collagen (commercial solution), but a collagen of type III or IV may also be used. It is extracted from rat tails or from calf skin by acidic hydrolysis and stored in acidic medium at +4° C.; it naturally polymerizes on heating to 37° C. and on reducing the level of acidity. The collagen is predialyzed against successive baths of water+acetic acid. The protocol is as follows: 1.76×MEM medium in the presence of additives (1% glutamine, 1% nonessential amino acids, 1% sodium pyruvate, 1% fungizone and 1% penicillin/streptomycin), foetal calf serum and 0.1 N NaOH are introduced into a sterile flask tube. The fibroblasts isolated from human skin explants are then added at a concentration of 1.4×10^5 cells per 1 ml of culture medium. A volume/volume mixture of collagen in acetic acid to 1/1000 is then added slowly, against the wall of the tube so as to observe the appearance of a whitish cloud. The whole is then mixed cautiously and distributed in the wells of a 12-well culture plate (of the type Costar reference 3512) at a rate of 0.5 ml of mixture per cm^2. The culture plate is then placed in an incubator at 37° C. with 5% CO2. Once formed after polymerization of the collagen, the dermal equivalents are left adhering to the culture support for 3 days and then detached from the support in order for the contraction to be able to start. These attached dermal equivalents are removed from the incubator for the taking of the images to measure their surface area, for each point of the contraction kinetics (0, 4, 8 and 24 hours). They are immediately returned to the incubator between each measuring point. The evaluation of the spontaneous contraction of the treated dermal equivalents (treated with (R)(+)-trans-N-(4-pyridyl)-4-(1-aminoethyl)cyclohexanecarboxamide dihydrochloride) and control dermal equivalents (without (R)(+)-trans-N-(4-pyridyl)-4-(1-aminoethyl)cyclohexanecarboxamide) is performed by measuring their surface area, at different times after the start of the spontaneous contraction. To do this, a digital image is acquired for each treated or untreated dermal equivalent using a camera (Sony DXC-107P CCD-Iris camera) and the area is then calculated on each image using an image analysis system (Zeiss Axiovision 3.0). […]

[1] = 0.1 μM, 4 hours after detaching from support
[2] = 0.1 μM, 8 hours after detaching from support
[3] = 0.1 μM, 24 hours after detaching from support
[4] = 1 μM, 4 hours after detaching from support
[5] = 1 μM, 8 hours after detaching from support
[6] = 1 μM, 24 hours after detaching from support

Structure (SMILES) | reduction of percentage of contraction relative to the control [1] | reduction of percentage of contraction relative to the control [2] | reduction of percentage of contraction relative to the control [3] | reduction of percentage of contraction relative to the control [4] | reduction of percentage of contraction relative to the control [5] | reduction of percentage of contraction relative to the control [6] | reduction of percentage of contraction relative to the control (5 μM, 4 hours after detaching from support) | reduction of percentage of contraction relative to the control (5 μM, 8 hours after detaching from support) | reduction of percentage of contraction relative to the control (5 μM, 24 hours after detaching from support) | inhibition of contraction of the dermal equivalent (in words) | effectiveness compared with Y-27632 at the same concentrations (same concentrations) | reversibility of the inhibition of contraction
O=S(=O)(c1cccc2cnccc12)N1CCCNCC1 [1-(5-isoquinolinesulfonyl)homopiperazine] | 2.6% | 2.4% | 1.5% | 8% | 9.5% | 8.2% | 17% | 19.4% | 22.2% | dose-dependent inhibition of contraction | less effective than | –
C[C@@H](N)[C@H]1CC[C@H](C(=O)Nc2ccncc2)CC1.Cl.Cl [(R)(+)-trans-N-(4-pyridyl)-4-(1-aminoethyl)cyclohexanecarboxamide dihydrochloride] | 6.1% | 6.4% | 7.2% | 20.6% | 24.4% | 29.3% | – | – | – | dose-dependent inhibition of contraction | – | reversible
